In the oligonucleotide strings, read from the 5' end, every base follows the letter of its sugar. An asterisk marks phosphorothioate; unmarked linkages are phosphodiester. Other units and linkages are bracketed, terminal groups are in braces. A string of capitals states the bases alone. e = 2'-O-(2-methoxyethyl) (MOE); [5mC] = 5-methylcytosine
Key:
HSL = HSL mRNA expression in adipocytes (real-time PCR); assay type: cell-based, human; details: differentiating adipocytes transfected with oligomeric compound; Table 75
aP2 = aP2 mRNA expression in adipocytes (real-time PCR); assay type: cell-based, human; details: differentiating adipocytes transfected with oligomeric compound; Table 75
HuVECs = test: Endothelial tube formation assay in HuVECs; details: 75 nM oligomeric compound
Glut4 = Glut4 mRNA expression in adipocytes (real-time PCR); assay type: cell-based, human; details: differentiating adipocytes transfected with oligomeric compound; Table 75
PPARγ = PPARγ mRNA expression in adipocytes (real-time PCR); assay type: cell-based, human; details: differentiating adipocytes transfected with oligomeric compound; Table 75
PEPCK-c = PEPCK-c mRNA expression in HepG2 cells; assay type: cell-based, human; details: for PEPCKc mRNA expression: Experiment 2, insulin treated: HepG2 cells transfected with oligomeric compound, 1 nM insulin for four hours, UTC + 1 nM insulin = 100; for PEPCKc mRNA: HepG2 cells, Experiment 1, basal (no insulin), four hours, UTC = 100
IGFBP-1 = IGFBP-1 mRNA expression in HepG2 cells; assay type: cell-based, human; details: for IGFBP1 mRNA expression: Experiment 2, insulin treated: HepG2 cells transfected with oligomeric compound, 1 nM insulin for four hours, UTC + 1 nM insulin = 100; for IGFBP1 mRNA: HepG2 cells, Experiment 1, basal (no insulin), four hours, UTC = 100

Row | Substance | HSL mRNA (HSL) | aP2 mRNA (aP2) | % Activity Relative to UTC (tube formation) (HuVECs; Table 58) | GLUT4 mRNA (Glut4) | PPAR gamma mRNA (PPARγ) | PEPCKc mRNA expression (PEPCK-c) | PEPCKc mRNA (PEPCK-c) | IGFBP1 mRNA expression (IGFBP-1) | IGFBP1 mRNA (IGFBP-1) | % Activity Relative to UTC (tube formation) (HuVECs; Table 59) | % Activity Relative to UTC (tube formation) (HuVECs; Table 56) | reduction of PEPCK-c mRNA expression (PEPCK-c; HepG2, 1 nM insulin, 100 nM) | decrease in PEPCK-c mRNA (PEPCK-c; HepG2, basal (no insulin), 100 nM)
1 | 327935 (antisense e[5mC]*eT*eA*e[5mC]*e[5mC]*eT*eG*e[5mC]*eA*e[5mC]*eT*eA*eT*eA*eA*eG*e[5mC]*eA*e[5mC]*eT*eT*eT*eA) [compound 327935] | 61 percentage of untreated control (UTC) | 60 percentage of untreated control (UTC) | 74.1% | 47 percentage of untreated control (UTC) | 67 percentage of untreated control (UTC) |  |  |  |  |  |  |  | 
2 | 327946 (antisense eA*eG*eG*e[5mC]*eG*eA*eA*eG*eG*eA*eT*eG*eA*e[5mC]*eA*eA*eA*eG*eG*eG*eA*eA) [compound 327946] | 76 percentage of untreated control (UTC) | 73 percentage of untreated control (UTC) | 51.9% | 68 percentage of untreated control (UTC) | 81 percentage of untreated control (UTC) | 99 | 90 | 138 | 108 |  |  |  | 
3 | 327957 (antisense e[5mC]*eA*e[5mC]*eA*eA*eG*eT*eT*e[5mC]*eG*eG*eA*eT*e[5mC]*eT*eA*e[5mC]*eG*eG*eG*eT*eT) [compound 327957] | 15 percentage of untreated control (UTC) | 23 percentage of untreated control (UTC) |  | 11 percentage of untreated control (UTC) | 68 percentage of untreated control (UTC) | 88 | 59 | 184 | 143 | 66.7% |  |  | 
4 | 327945 (antisense e[5mC]*eT*eG*eT*eT*e[5mC]*e[5mC]*eT*eG*e[5mC]*eT*eG*eA*eA*e[5mC]*eT*eG*eA*eG*e[5mC]*e[5mC]*eA) [compound 327945] | 41 percentage of untreated control (UTC) | 43 percentage of untreated control (UTC) | 59.3% | 26 percentage of untreated control (UTC) | 51 percentage of untreated control (UTC) |  |  |  |  |  |  |  | 
5 | 327949 (antisense e[5mC]*eA*e[5mC]*eA*eA*eA*eT*eT*e[5mC]*eG*eG*eA*eT*e[5mC]*eT*eA*e[5mC]*eA*eG*eG*eG*eT*eA) [compound 327949] | 49 percentage of untreated control (UTC) | 52 percentage of untreated control (UTC) |  | 20 percentage of untreated control (UTC) | 54 percentage of untreated control (UTC) | 101 | 81 | 172 | 112 | 66.7% |  |  | 
6 | 327873 (antisense e[5mC]*eT*eA*e[5mC]*e[5mC]*eA*eT*eA*eG*eG*eG*eT*eA*eA*eA*eA*e[5mC]*e[5mC]*eA*e[5mC]*eT) [compound 327873] | 116 percentage of untreated control (UTC) | 113 percentage of untreated control (UTC) |  | 106 percentage of untreated control (UTC) | 104 percentage of untreated control (UTC) |  | 72 |  | 108 |  | 100.0% |  | 
7 | 327924 (antisense eG*e[5mC]*eA*eA*eG*e[5mC]*e[5mC]*e[5mC]*eA*eG*eA*e[5mC]*e[5mC]*eG*e[5mC]*eA*eA*eA*eA*eA*eG) [compound 327924] |  |  | 88.9% |  |  |  |  |  |  |  |  |  | 
8 | 327961 (antisense eG*eG*eG*eG*eT*eA*eT*eT*eT*eG*eA*e[5mC]*eA*eA*eA*e[5mC]*eT*eG*eA*e[5mC]*eA) [compound 327961] | 88 percentage of untreated control (UTC) | 91 percentage of untreated control (UTC) |  | 101 percentage of untreated control (UTC) | 95 percentage of untreated control (UTC) | 126 | 98 | 160 | 150 | 53.3% |  |  | 
9 | 327944 (antisense eA*eA*eA*eG*eT*eG*eT*e[5mC]*eA*eG*eA*eT*eA*e[5mC]*eG*eG*eT*eG*eT*eG*eG) [compound 327944] | 55 percentage of untreated control (UTC) | 71 percentage of untreated control (UTC) | 37.0% | 28 percentage of untreated control (UTC) | 64 percentage of untreated control (UTC) |  |  |  |  |  |  |  | 
10 | 327940 (antisense eG*eA*eA*e[5mC]*eA*eG*eG*eT*eA*eG*eT*e[5mC]*eT*eG*eA*eA*e[5mC]*eA*e[5mC]*eT*eG*eG*eG) [compound 327940] | 67 percentage of untreated control (UTC) | 62 percentage of untreated control (UTC) | 59.3% | 43 percentage of untreated control (UTC) | 64 percentage of untreated control (UTC) |  |  |  |  |  |  |  | 
11 | 327958 (antisense e[5mC]*e[5mC]*eG*eG*e[5mC]*eT*eG*e[5mC]*eA*eA*e[5mC]*eA*e[5mC]*eA*eA*eG*eA*e[5mC]*eA*e[5mC]*eG*eA) [compound 327958] | 5 percentage of untreated control (UTC) | 10 percentage of untreated control (UTC) |  | 5 percentage of untreated control (UTC) | 55 percentage of untreated control (UTC) | 106 | 73 | 149 | 119 | 40.0% |  |  | 
12 | 327963 (antisense eA*eA*e[5mC]*e[5mC]*eT*eA*eT*e[5mC]*e[5mC]*eT*eG*eA*eA*eT*eT*eA*e[5mC]*eT*eT*eG*eA*eA) [compound 327963] | 89 percentage of untreated control (UTC) | 75 percentage of untreated control (UTC) |  | 91 percentage of untreated control (UTC) | 91 percentage of untreated control (UTC) | 94 | 92 | 111 | 108 | 93.3% |  |  | 
13 | 327959 (antisense e[5mC]*eA*eG*e[5mC]*e[5mC]*eG*e[5mC]*eT*eG*eT*e[5mC]*eA*e[5mC]*eA*e[5mC]*eG*e[5mC]*eA*e[5mC]*eA*eG) [compound 327959] | 11 percentage of untreated control (UTC) | 24 percentage of untreated control (UTC) |  | 152 percentage of untreated control (UTC) | 65 percentage of untreated control (UTC) | 156 | 139 | 141 | 124 | 40.0% |  |  | 
14 | CTAGTGGTCCTAAACATTTCAC (chemistry not given here) [ISIS 327878, uniform 2′-MOE PS; targets mir-203] |  |  |  |  |  |  |  |  |  |  |  | 71% | 55%
15 | 327936 (antisense eA*e[5mC]*eA*eG*e[5mC]*eT*eG*eG*eT*eT*eG*eA*eA*eG*eG*eG*eG*eA*e[5mC]*e[5mC]*eA*eA) [compound 327936] | 40 percentage of untreated control (UTC) | 40 percentage of untreated control (UTC) | 51.9% | 6 percentage of untreated control (UTC) | 47 percentage of untreated control (UTC) |  |  |  |  |  |  |  | 
16 | 327971 (antisense eG*eG*eA*eA*eA*eT*e[5mC]*e[5mC]*e[5mC]*eT*eG*eG*e[5mC]*eA*eA*eT*eG*eT*eG*eA*eT) [compound 327971] | 38 percentage of untreated control (UTC) | 49 percentage of untreated control (UTC) |  | 60 percentage of untreated control (UTC) | 69 percentage of untreated control (UTC) |  |  |  |  |  |  |  | 

Reference: patent publication US8178506B2, “Oligomeric compounds and compositions for use in modulation of small non-coding RNAs” (Regulus Therapeutics Inc., priority 2003, dated 2012)
